Experimental data taken from patent EP0126043A1, “Carbohydrate derivatives and compositions thereof for therapeutic or diagnostic use” (priority 1983, dated 1984).
Values after ≈ are worked out from the molar mass of the structure shown.

Key:
[1] = tested on: S. pneumoniae; assay: Inhibition of adherence of pneumococci to human pharyngeal epithelium cells (bacteria preincubated with free receptor); format: cell-based; details: for activity at 100 µg/mL / activity at 1000 µg/mL / activity at 5000 µg/mL / activity at 10000 µg/mL: read-out: Adherence % of control Average; for IC50: read-out: concentration for 50% inhibition of adherence; for inhibition of adherence (result in words): pretreatment of the pneumococci with the substance; for Inhibition of adherence % of control Average: Conc. 200 µg/ml, bacteria preincubated with the glycoconjugate before adding epithelium cells, adhesion in percent of saline control
Method: (§1) Two strains of S. Pneumoniae, EF3114 and EF 10276 (both of the capsular type 6A isolated from the nasopharynx of patients having inflammation in the middle ear) were maintained in a lyophilized state. For adherence test the lyophiles were transferred to blood agar plates and cultivated over night, were then allowed to grow for18 hours in a synthetic medium (Ref. 1) supplemented with 2 g/l ascorbic acid and such as described in (Ref. 2). The bacteria were harvested by centrifugation and suspended in saline solution (Ref. 3).
(§2) Binding to humane nasopharyngeal epithelium cells was investigated in vitro as previously described (Ref. 3). Bacterial cells (10^9/ml) and pharyngeal epithelium cells from a healthy donor (10^4/ml) were mixed, centrifugated at 1500xg for 10 minutes and incubated at 37°C for 30 minutes. After washing twice in 2.5 ml salines for separating epithelium cells from non-adhering bacteria the number of bacteria adhering at 40 epithelium cells were counted and the average number per cell was determined.
For inhibition of adhesion the bacterium concentration giving an average adhesion value of 20-300 bacteria per cell was determined. This inoculate was then preincubated with dilutions of the solutions of potential receptor activity for 15 minutes at 37°C.
Epithelium cells were added and adhesion testing was carried out as described. The adhesion was given in percent of the saline as a control sample.

[2] = tested on: S. pneumoniae; assay: Induction/increase of pneumococcal adherence by coating epithelium cells with glycoconjugate; format: cell-based; details: for Increase of adherence % of control Average: Conc. 200 µg/ml, epithelium cells preincubated with glycoconjugate, washed and used for adherence testing; for effect of coating of pharyngeal epithelium cells on adherence (result in words): coating with 200 µg/ml
Method: as §1
as §2, with “healthy male” for “healthy”
Association of receptor active glycolipids with epithelium cells or erythrocytes can increase binding to epithelium cells already containing the receptor or induce binding of cells which have not previously contained receptor. Rabbit erythrocytes (100 ul of a 5 % suspension) were mixed with a neolactotetraosyl ceramide, sialylneolactotetra- osyleeramide or globotetraosylceramide (500 ul of . suspensions of 200 ug/ml) and incubated at 37° for 3 hours with rotation (Ref. 16). After elimination of unbound glycolipid by repeated washing the erythrocyte concentration was again adjusted to 5 % and used for haemagglutination. Parallel to the tests regarding inhibition of adherence the humane nasopharyngeal epithelium cells were pretreated with decreasing concentrations of glycolipid, incubated for 2 hours at 37°C, washed and used for testing of adherence.

Row | Molecule | activity at 100 µg/mL ([1]; Streptococcus pneumoniae) | activity at 1000 µg/mL ([1]; Streptococcus pneumoniae) | activity at 5000 µg/mL ([1]; Streptococcus pneumoniae) | activity at 10000 µg/mL ([1]; Streptococcus pneumoniae) | other results
1 | CC(=O)N[C@H]1[C@H](O[C@H]2[C@@H](O)[C@@H](CO)O[C@@H](O[C@H]3[C@H](O)[C@@H](O)C(O)O[C@@H]3CO)[C@@H]2O)O[C@H](CO)[C@@H](O[C@@H]2O[C@H](CO)[C@H](O)[C@H](O)[C@H]2O)[C@@H]1O (stereo partly shown) [Substance 5, Neolactotetraose] | 52% | 28% | 0% | 1% | IC50 ([1]; Streptococcus pneumoniae): ~400 µg/mL (≈ 565 µM)
2 | CC(=O)N[C@H]1[C@H](O[C@H]2[C@@H](O)[C@@H](CO)O[C@@H](O[C@H]3[C@H](O)[C@@H](O)C(O)O[C@@H]3CO)[C@@H]2O)O[C@H](CO)[C@@H](O)[C@@H]1O[C@@H]1O[C@H](CO)[C@H](O)[C@H](O)[C@H]1O (stereo partly shown) [Substance 6, Lactotetraose] | 68% | 25% | 4% | – | IC50 ([1]; Streptococcus pneumoniae): ~400 µg/mL (≈ 565 µM)
3 | CO[C@H]1O[C@H](CO)[C@@H](O[C@@H]2O[C@H](CO)[C@H](O)[C@H](O)[C@H]2O)[C@H](O)[C@H]1NC(C)=O [Substance 8, Methyl 2-acetamido-2-deoxy-4-O-(β-D-galactopyranosvl)-α--D-glycopyranoside] | – | 96% | 98% | 129% | inhibition of adherence (result in words) [1]: inactive
4 | CO[C@@H]1O[C@H](CO)[C@@H](O[C@@H]2O[C@H](CO)[C@H](O)[C@H](O)[C@H]2O)[C@H](O)[C@H]1NC(C)=O [Substance 9, Methyl 2-acetamido-2-deoxy-4-O-(β-D-galactopyranosyl)-β--D-glycopyranoside] | – | 96% | 45% | 29% | minimal effective concentration ([1]; Streptococcus pneumoniae, read-out: concentration at which adherence was inhibited): ~5000 µg/mL
5 | CC(=O)N[C@H]1C(O)O[C@H](CO)[C@@H](O[C@@H]2O[C@H](CO)[C@H](O)[C@H](O)[C@H]2O)[C@@H]1O (stereo partly shown) [Substance 10, N-acetyllactose amine, reference compound] | – | 95% | 144% | 127% | inhibition of adherence (result in words) [1]: inactive
6 | CO[C@@H]1O[C@H](CO)[C@H](O[C@@H]2O[C@H](CO)[C@@H](O)[C@H](O)[C@H]2NC(C)=O)[C@H](O)[C@H]1O [Substance 11, Methyl 4-0-(2-acetamido-2-deoxy-β-D-glycopyranosyl)-β-D--galactopyranoside] | 65% | 72% | 73% | 75% | inhibition of adherence (result in words) [1]: inactive
7 | CO[C@@H]1O[C@H](CO)[C@H](O)[C@H](O[C@@H]2O[C@H](CO)[C@@H](O)[C@H](O)[C@H]2NC(C)=O)[C@H]1O [Substance 12, Methyl 3-0-(2-acetamido-2-deoxy-β-D-glycopyranosyl)-β-D--galactopyranoside] | 66% | 105% | 15% | 4% | –
8 | CCO[C@@H]1O[C@H](CO)[C@@H](O[C@@H]2O[C@H](CO)[C@H](O)[C@H](O)[C@H]2O)[C@H](O)[C@H]1NC(C)=O [Substance 13, Galβ1→4GlcNAcβ1-O-Et] | – | 67% | 38% | 31% | –
9 | CCO[C@@H]1O[C@H](CO)[C@@H](O[C@@H]2O[C@H](CO)[C@H](O)[C@H](O)[C@H]2O)[C@H](O)[C@H]1O [Substance 14, Ethyl 4-0-β-D-galactopyranosyl-β-D-glycopyranoside] | – | 85% | 78% | 63% | –
10 | CO[C@@H]1O[C@H](CO)[C@H](O)[C@H](O[C@@H]2O[C@H](CO)[C@@H](O[C@@H]3O[C@H](CO)[C@H](O)[C@H](O)[C@H]3O)[C@H](O)[C@H]2NC(C)=O)[C@H]1O [Substance 15, Methyl 3-0-2-acetamido-2-deoxy-4-0-(β-D-galactopyranosyl)--β-D-glycopyranosyl-β-D-galactopyranoside] | 60% | 45% | 11% | 2% | –
11 | CO[C@@H]1O[C@H](CO)[C@@H](O[C@@H]2O[C@H](CO)[C@H](O)[C@H](O[C@@H]3O[C@H](CO)[C@@H](O[C@@H]4O[C@H](CO)[C@H](O)[C@H](O)[C@H]4O)[C@H](O)[C@H]3NC(C)=O)[C@H]2O)[C@H](O)[C@H]1O [Substance 16, Methyl 4-0-{3-0-[2-acetamido-2-deoxy-4-0-(D-galactopy-ranasyl)-β-D-glucopyranosyl]-β-D-galactopyranosyl}-β-D-glucopyranoside] | 104% | 11% | 1% | 4% | –
12 | Galβ1 → 3 GlcNAc-β1-O-Bz [Substance 17] | – | – | – | – | Adherence % of control Average ([1]; Conc. 0.1 mg/ml): 88 % of control; Adherence % of control Average ([1]; Conc. 1 mg/ml): 86 % of control; Adherence % of control Average ([1]; Conc. 5 mg/ml): 51 % of control; Adherence % of control Average ([1]; Conc. 10 mg/ml): 8 % of control
13 | N-acetylneuraminosyl neolactotetraosyl ceramide [Substance 3, reference compound] | – | – | – | – | Inhibition of adherence % of control Average [1]: 100 % of control; inhibition of adherence (result in words) [1]: no effect; Increase of adherence % of control Average [2]: 94 % of control; effect of coating of pharyngeal epithelium cells on adherence (result in words) [2]: no effect
14 | globotetraosylceramide | – | – | – | – | effect of coating of pharyngeal epithelium cells on adherence (result in words) [2]: no effect
15 | globotetraosylceramide [Substance 4, reference compound] | – | – | – | – | Increase of adherence % of control Average [2]: 100 % of control
16 | neolactotetraosyl ceramide [Substance 2] | – | – | – | – | Inhibition of adherence % of control Average [1]: 59 % of control; adherence, % of the saline as a control ([1]; pretreatment of the pneumococci, at 200 µg/ml, 15 min): 59%; Increase of adherence % of control Average [2]: 190 % of control; effect of coating of pharyngeal epithelium cells on adherence (result in words) [2]: increased adherence
